From the supplement of paper PMC11061612

Key:
Test in all cases: combination Emax (second highest fraction inhibited in the dose matrix, 72 h); higher = more inhibition; extreme values may be limits of the assay
A704 (Kidney Carcinoma) = test system: A704 (Kidney Carcinoma)
Outline: (§1)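 After 24 hours at 37°C and 5% CO2 in 1536-well plates, cells in DMEM/F12 or RPMI plus 10% FBS received two-drug dose matrices for 72 hours. Viability came from CellTiter-Glo 2.0 luminescence and was scaled as inhibition, anchored at 0 by vehicle wells and at 1 by blank wells. Combination Emax is taken as the second-highest inhibition in the matrix, and Bliss excess as the observed combination effect less EA + EB − EA·EB, with EA and EB the single-agent effects.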

[1] = test system: ASH-3 (Thyroid Gland Carcinoma)
Outline: as §1

BT-20 (Breast Carcinoma) = test system: BT-20 (Breast Carcinoma)
Outline: as §1

[2] = test system: BV-173 (Chronic Myelogenous Leukemia)
Outline: as §1

[3] = test system: EBC-1 (Squamous Cell Lung Carcinoma)
Outline: as §1

GI-1 (Glioblastoma) = test system: GI-1 (Glioblastoma)
Outline: as §1

[4] = test system: H-EMC-SS (Chondrosarcoma)
Outline: as §1

[5] = test system: HSC-2 (Oral Cavity Carcinoma)
Outline: as §1

[6] = test system: KINGS-1 (Low Grade Glioma)
Outline: as §1

[7] = test system: KLE (Endometrial Carcinoma)
Outline: as §1

[8] = test system: KP-2 (Pancreatic Carcinoma)
Outline: as §1

[9] = test system: KU-19-19 (Bladder Carcinoma)
Outline: as §1

[10] = test system: NCI-H2347 (Lung Adenocarcinoma)
Outline: as §1

[11] = test system: NCI-N87 (Gastric Carcinoma)
Outline: as §1

NH-12 (Neuroblastoma) = test system: NH-12 (Neuroblastoma)
Outline: as §1

[12] = test system: PF-382 (T-Lymphoblastic Leukemia)
Outline: as §1

RPMI-7951 (Melanoma) = test system: RPMI-7951 (Melanoma)
Outline: as §1

[13] = test system: SCC-3 (B-Cell Non-Hodgkin's Lymphoma)
Outline: as §1

[14] = test system: SCC-9 (Oral Cavity Carcinoma)
Outline: as §1

[15] = test system: SNU-C1 (Colorectal Carcinoma)
Outline: as §1

Compound | combination Emax (A704 (Kidney Carcinoma)) | combination Emax [1] | combination Emax (BT-20 (Breast Carcinoma)) | combination Emax [2] | combination Emax [3] | combination Emax (GI-1 (Glioblastoma)) | combination Emax [4] | combination Emax [5] | combination Emax [6] | combination Emax [7] | combination Emax [8] | combination Emax [9] | combination Emax [10] | combination Emax [11] | combination Emax (NH-12 (Neuroblastoma)) | combination Emax [12] | combination Emax (RPMI-7951 (Melanoma)) | combination Emax [13] | combination Emax [14] | combination Emax [15]
COc1nnc2ccc(N3CCC(c4ccc(OCCN5CCN(C)C(=O)[C@H]5C)cc4)CC3)nn12 [AZD5153] + Cc1c2c(nn1C)CSCc1cc(n(C)n1)CSc1cc(c3ccccc3c1)OCCCc1c(C(=O)O)n(C)c3c-2c(Cl)ccc13 [AZD5991] (first compound max 1 µM, 7x7, partner max 1 µM) | 0.545 | 0.88 | 0.787 | 0.936 | 0.862 | 0.961 | 0.345 | 0.963 | 0.186 | 0.668 | 0.427 | 0.775 | 0.39 | 0.551 | 0.672 | 0.986 | 0.825 | 0.997 | 0.601 | 0.637
CC(=O)c1c(C)c2cnc(Nc3ccc(N4CCNCC4)cn3)nc2n(C2CCCC2)c1=O [Palbociclib] + CC1(C)CCC(CN2CCN(c3ccc(C(=O)NS(=O)(=O)c4ccc(NCC5CCOCC5)c([N+](=O)[O-])c4)c(Oc4cnc5[nH]ccc5c4)c3)CC2)=C(c2ccc(Cl)cc2)C1 [Venetoclax] (first compound max 10 µM, 7x7, partner max 1 µM) | 0.625 | 0.283 | 0.0933 | 0.848 | 0.223 | 0.03 | 0.284 | 0.245 | 0.206 | 0.203 | 0.056 | 0.319 | 0.14 | 0.417 | 0.592 | 0.633 | 0.431 | 0.378 | 0.13 | 0.194
CN(C)CCCOc1ccc(-c2ccc3ncc4c(c3c2)n(C2CCOCC2)c(=O)n4C)cn1 [AZD0156] + C=CCn1c(=O)c2cnc(Nc3ccc(N4CCN(C)CC4)cc3)nc2n1-c1cccc(C(C)(C)O)n1 [AZD1775] (first compound max 1 µM, partner max 1 µM) | 0.379 | 0.203 | 0.476 | 0.995 | 0.165 | 0.88 | 0.346 | 0.54 | 0.293 | 0.531 | 0.147 | 0.751 | 0.335 | 0.726 | 0.877 | 0.954 | 0.687 | 0.941 | 0.168 | 0.295
COc1cccc(OCCCN)c1-c1cc(Nc2cnc(C#N)cn2)n[nH]1 [Prexasertib] + C[C@@H]1COCCN1C2=NC(=NC(=C2)C3(CC3)[S@](=N)(=O)C)C4=C5C=CNC5=NC=C4 [AZD6738] (first compound max 1 µM, 7x7, partner max 10 µM) | 0.504 | 0.705 | 0.599 | 0.964 | 0.626 | 0.962 | 0.383 | 0.741 | 0.506 | 0.437 | 0.398 | 0.836 | 0.458 | 0.718 | 0.925 | 0.917 | 0.957 | 1 | 0.433 | 0.73
COc1cccc(OCCCN)c1-c1cc(Nc2cnc(C#N)cn2)n[nH]1 [Prexasertib] + Cc1cc2ncnn2cc1Nc1ncc2c(n1)n(C1CCOCC1)c(=O)n2C [AZD7648] (first compound max 1 µM, 7x7, partner max 10 µM) | 0.504 | 0.648 | 0.646 | 0.964 | 0.588 | 0.987 | 0.458 | 0.778 | 0.607 | 0.471 | 0.57 | 0.836 | 0.39 | 0.776 | 0.908 | 0.934 | 0.971 | 1 | 0.49 | 0.759
COc1nnc2ccc(N3CCC(c4ccc(OCCN5CCN(C)C(=O)[C@H]5C)cc4)CC3)nn12 [AZD5153] + C[C@@H]1COCCN1C2=NC(=NC(=C2)C3(CC3)[S@](=N)(=O)C)C4=C5C=CNC5=NC=C4 [AZD6738] (first compound max 1 µM, 7x7, partner max 10 µM) | 0.681 | 0.852 | 0.399 | 0.95 | 0.798 | 0.97 | 0.321 | 0.79 | 0.281 | 0.737 | 0.432 | 0.685 | 0.525 | 0.766 | 0.938 | 1 | 0.925 | 0.986 | 0.45 | 0.693
